The numbers were not newly measured in patent publication US20050101548A1, “Antimicrobial derivatives” (priority 2003, published 2005), which cites them from elsewhere.

Series [1] relates to macrolide-sensitive and resistant bacteria.
Series [2] has as its system S. pneumoniae.
For series [3], the system named is Gram-negative bacteria.

As to `C=C1CO[C@@H]2[C@@H](C)/C(=N/C(C)=O)[C@H](C)C[C@@](C)(OC1)[C@H](O[C@@H]1O[C@H](C)C[C@H](N(C)C)[C@H]1O)[C@@H](C)C(=O)[C@@H](C)C(=O)O[C@H](CC)[C@@]2(C)O` [EP-1304], the “activity against some macrolide-sensitive and resistant bacteria in vivo” value in series [1] is “exhibits activity”.
Turning to `CC[C@H]1OC(=O)[C@H](C)C(=O)[C@H](C)[C@@H](O[C@@H]2O[C@H](C)C[C@H](N(C)C)[C@H]2O)[C@@]2(C)C[C@@H](C)/C(=N\C(C)=O)[C@H](C)[C@@H](OCC(=NOCc3ccccc3)CO2)[C@]1(C)O` [EP-1562], the “antibacterial activity against S. pneumoniae” value in series [2] was “possess antibacterial activity”.
Consider `CC[C@H]1OC(=O)[C@H](C)C(=O)[C@H](C)[C@@H](O[C@@H]2O[C@H](C)C[C@H](N(C)C)[C@H]2O)[C@@]2(C)C[C@@H](C)/C(=N\C(C)=O)[C@H](C)[C@@H](OCC(=NOCc3ccc(-c4cccnc4)s3)CO2)[C@]1(C)O` [EP-12728], for which the “antibacterial activity against S. pneumoniae” value in series [2] is recorded as “possess antibacterial activity”.
With `CC[C@H]1OC(=O)[C@H](C)[C@@H](O[C@H]2C[C@@](C)(OC)[C@@H](O)[C@H](C)O2)[C@H](C)[C@@H](O[C@@H]2O[C@H](C)C[C@H](N(C)C)[C@H]2O)[C@](C)(O)C[C@@H](C)C(=O)[C@H](C)[C@@H](O)[C@]1(C)O` [erythromycin A], in series [3], the “activity against Gram-negative bacteria” value was “only weak activity”.
